6 compounds from PubChem BioAssay (NCI) can be followed below.

Molecules are shown by their SMILES.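 1) Cells in 96-well plates. 2) Compound, 48 h, 5 concentrations. 3) Linear interpolation between surrounding doses. 4) Unreached endpoint = highest concentration. At the TGI there is no net growth.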 A value given as a limit tells only on which side of the number the result lay.

Common to all, as to experiment: inhibition of tumour cell growth, NCI panel, 48 h
The subject of assay [1] is HL-60(TB) leukemia.
Assay [2] concerns SN12C renal.
The test system of assay [3] is SNB-75 CNS.
Assay [4] relates to OVCAR-3 ovarian.
The test system of assay [5] is SNB-19 CNS.
The test system of assay [6] is T-47D breast.
In assay [7] the test system is 786-0 renal.
Assay [8] has as its system HT29 colon.
Assay [9] has as its system PC-3 prostate.
The subject of assay [10] is KM12 colon.
Assay [11] deals with NCI-H460 lung.
The subject of assay [12] is MDA-MB-435.
The test system of assay [13] is NCI-H226 lung.
For assay [14], the system named is UACC-62 melanoma.
Assay [15] concerns OVCAR-4 ovarian.
The subject of assay [16] is MCF7 breast.
For assay [17], the system named is SK-MEL-5 melanoma.
Assay [18] deals with SR leukemia.
In assay [19] the test system is HOP-92 NSCLC.
The subject of assay [20] is SF-539 CNS.

Take `Cc1nc(-n2nc(-c3ccccc3)cc2-c2ccccc2)sc1C(=O)/C=C/c1ccc([N+](=O)[O-])cc1`: the TGI in assay [1] was 55.9 µM; in assay [2] it was above 76.4 µM; in assay [3], above 67 µM; in [4] it was 45.3 µM; in [5], above 100 µM; in assay [6], above 100 µM. Also, the TGI in assay [7] is 29.8 µM; in assay [8], above 100 µM; in [9] it was above 100 µM; in assay [10] it was 38.1 µM; in assay [11] it was above 69.3 µM; in assay [12], 43.5 µM. Besides, the TGI is above 100 µM in assay [13]; above 53.9 µM in assay [14]; above 100 µM in assay [15]; above 100 µM in assay [16]; above 56.4 µM in [17]; 24.2 µM in [18]. In addition, the TGI in assay [19] is above 85.7 µM; in assay [20] it was 18.8 µM.
For `Nc1ncnc2c1ncn2[C@@H]1O[C@H](COP(=O)(O)OP(=O)(O)OC[C@H]2O[C@@H](OCCCO)[C@H](O)[C@@H]2O)[C@@H](O)[C@H]1O`, the TGI in assay [1], in [2], in assay [3], in assay [4], in assay [5] and in assay [6] was above 100 µM in each case. For the same compound, the TGI in assay [7], in assay [8], in assay [9], in assay [10], in assay [11] and in assay [12] was above 100 µM throughout. Further, the TGI in assay [13], in assay [14], in assay [15], in assay [16], in [17] and in assay [18] was above 100 µM each time. For the same compound, the TGI in assay [19] and in [20] was above 100 µM in each case.
With `O=C1NC(=NCc2ccc(F)cc2)N/C1=C\c1ccccc1Cl`, the TGI in assay [1] came to 36.5 µM; in assay [2], 29.6 µM; in assay [3], 26.6 µM; in assay [4], 32.6 µM; in [5], 39.7 µM; in [6], 29.4 µM. Also, the TGI in [7] was 24 µM; in assay [8], 29.5 µM; in [9], 38.8 µM; in assay [10], 53.9 µM; in assay [11] it was above 100 µM; in assay [12], 43.9 µM. The TGI is 69.3 µM in assay [13]; 29.8 µM in [14]; 74.3 µM in assay [15]; 54.8 µM in [16]; 33.6 µM in assay [17]; above 100 µM in assay [18]. The TGI in [19] is 24.9 µM; in assay [20], above 100 µM.
Take `N#Cc1sc2c(c1OC(=O)c1ccc(Cl)cc1Cl)c(=O)n(-c1ccccc1)c(=S)n2-c1ccccc1`: the TGI is 46.7 µM in [1]; 57.8 µM in assay [2]; above 100 µM in assay [3]; 76.3 µM in assay [4]; 60.6 µM in [5]; above 100 µM in [6]. The TGI is 77.3 µM in assay [7]; 55 µM in assay [8]; above 100 µM in assay [9]; 89.7 µM in [10]; above 100 µM in [11]; 46.2 µM in assay [12]. For the same compound, the TGI is 66.8 µM in assay [13]; 40.4 µM in assay [14]; 66.5 µM in [15]; 73.4 µM in assay [16]; 34.6 µM in assay [17]; above 100 µM in [18]. In addition, the results for the TGI in assay [19] and in assay [20] were 68.9 µM and 39.2 µM, respectively.
As to `CCO[C@H]1O[C@@H]2OC3(C)CCC4[C@H](C)CCC([C@H]1C)[C@]42OO3` (stereo not given in full), the TGI in assay [1] is 13.2 µM; in assay [2] it was above 100 µM; in [3], above 100 µM; in [4], 99.8 µM; in assay [5], above 100 µM; in [6] it was above 100 µM. Further, the TGI in assay [7], in assay [8], in assay [9], in assay [10], in assay [11] and in assay [12] was above 100 µM in each case. In addition, the TGI in assay [13], in [14], in [15], in assay [16], in [17] and in assay [18] was above 100 µM in each case. Further, the TGI in assay [19] and in assay [20] was above 100 µM in each case.
For the compound `O=C(O)c1ccccc1/C=C1/Cc2ccc3c(c2C1=O)CCC3`, the TGI in assay [1] was 48 µM; in [2] it was above 100 µM; in [3] it was above 100 µM; in [4], 95.2 µM; in [5] it was above 100 µM; in assay [6], above 100 µM. Moreover, the TGI was above 100 µM in [7]; above 100 µM in assay [8]; above 100 µM in assay [9]; above 100 µM in [10]; above 100 µM in assay [11]; 74.9 µM in [12]. Moreover, the TGI is 90.8 µM in assay [13]; above 100 µM in assay [14]; above 100 µM in assay [15]; above 100 µM in assay [16]; 46.2 µM in assay [17]; 91.3 µM in assay [18]. In addition, the TGI in [19] amounted to 80.8 µM; in assay [20] it was 43.6 µM.
